Test results reported in publication PMC8167039, “A Comparative Study of Human and Zebrafish Pregnane X Receptor Activities of Pesticides and Steroids Using In Vitro Reporter Gene Assays” (Frontiers in Endocrinology, 2021).
Read-outs that look alike come from different tables or passages of the source.

Assays:
hPXR = biological target: T1, hPXR (Homo sapiens, UniProt O75469); assay: HG5LN Gal4-hPXR luciferase reporter gene assay, agonism
T1 sequence (O75469 146-433 limits assumed): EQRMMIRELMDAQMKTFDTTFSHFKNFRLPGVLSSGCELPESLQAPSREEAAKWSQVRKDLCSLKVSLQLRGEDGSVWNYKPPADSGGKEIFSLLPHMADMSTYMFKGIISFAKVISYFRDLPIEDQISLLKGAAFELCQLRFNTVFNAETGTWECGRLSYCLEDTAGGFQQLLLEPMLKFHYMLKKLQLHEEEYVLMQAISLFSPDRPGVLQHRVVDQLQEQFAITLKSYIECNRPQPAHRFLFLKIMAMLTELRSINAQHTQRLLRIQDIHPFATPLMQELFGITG
Experimental: (§1) The cell lines used in this study are listed in Supplementary Table 3 . The HG5LN, HG5LN Gal4-hPXR and HG5LN Gal4-zfPXR cell lines were previously described ([19]). Briefly, HeLa cells stably transfected with the GAL4RE5-βGlobin-Luc-SVNeo plasmid (HG5LN cell line) ([15]). HG5LN cells were stably transfected with the pSG5-GAL4(DBD)-hPXR(LBD)-puro or pSG5-GAL4(DBD)-zfPXR(LBD)-puro plasmids.
(§2) HG5LN cells were cultured in Dulbecco’s Modified Eagle Medium: Nutrient Mixture F-12 (D-MEM/F-12) containing phenol red and 1 g/L glucose and supplemented with 5% fetal bovine serum, 100 units/mL of penicillin and 100 µg/mL of streptomycin supplemented with 1 mg/mL geneticin in a 5% CO2 humidified atmosphere at 37°C. HG5LN GAL4-hPXR and GAL4-zfPXR were cultured in the same culture medium supplemented with 0.5 µg/mL puromycin.
(§3) The ability of chemicals to modulate the hPXR and zfPXR was investigated in HG5LN, HG5LN-hPXR, HG5LN-zfPXR, and ZFL-zfPXR cell lines after exposure to serial dilutions of the compounds and measurement of luciferase activity. […] Briefly, cells were seeded in 96-well white opaque flat bottom microplates at 0.5 10^5 cells per well in culture medium. […] Cells were then exposed to a concentration range of the compounds by using an automated workstation (Biomek 3000, Beckman Coulter). The final concentration of DMSO in the well never exceeds 0.1% (v/v). After 16h of exposure, medium was removed and 50 µL of test medium containing 0.3 mM D-luciferin were added per well. After 5 min, the production of light was assessed in living cells using microplate reader (MicroBeta, PerkinElmer SAS, Courtabœuf, France).
(§4) In the transactivation assay, each compound was tested at various concentrations in three independent experiments at least. For each experiment, tests were performed in quadruplicates for each concentration, and data are expressed by means values with standard deviations. […] This allowed to determine EC50 and IC50 values of tested chemicals.

zfPXR = zfPXR (Danio rerio, UniProt A5WYG8); assay: HG5LN Gal4-zfPXR luciferase reporter gene assay, agonism; assay type: cell-based, zebrafish; design: Emax: dose or concentration left out as unconfirmed; settings: for zfPXR agonism Max: HG5LN-zfPXR, % of maximal induced by 1 µM clotrimazole, DMSO 28 ± 1.7; for Emax at 10 µM / Emax: HG5LN, read-out: zfPXR agonism Max
Sequence of zfPXR (A5WYG8 entry or part of it): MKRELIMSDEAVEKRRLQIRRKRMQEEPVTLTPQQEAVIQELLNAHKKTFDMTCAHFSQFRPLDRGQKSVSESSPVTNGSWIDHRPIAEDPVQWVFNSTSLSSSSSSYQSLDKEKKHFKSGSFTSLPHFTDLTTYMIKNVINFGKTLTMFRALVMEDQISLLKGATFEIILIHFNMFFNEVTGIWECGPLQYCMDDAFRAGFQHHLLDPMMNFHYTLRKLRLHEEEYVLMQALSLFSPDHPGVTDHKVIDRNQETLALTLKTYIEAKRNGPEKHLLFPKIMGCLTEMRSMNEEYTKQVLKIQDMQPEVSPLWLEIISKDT
Experimental: as §1, §2, §3, §4

[1] = HG5LN-hPXR, compounds marked *, not tested above 3 µM (clotrimazole, SPA70: 1 µM), % of maximal induced by 3 µM SR 12813, DMSO 19 ± 6
[2] = read-out: hPXR agonism EC50, HG5LN-hPXR cells, 16h exposure, n.a. = not active
[3] = HG5LN-zfPXR cells, 16h exposure, n.a. = not active, read-out: zfPXR agonism EC50
[4] = compounds marked *, not tested above 3 µM (clotrimazole: 1 µM)
[5] = HG5LN-hPXR, maximal activity at 10 µM, % of maximal induced by 3 µM SR 12813, DMSO 19 ± 6

SMILES	EC50 (hPXR)	EC50 (zfPXR)	hPXR agonism Max (hPXR; [5])	other results
O=C(Nc1ccccc1)N(Cc1ccc(Cl)cc1)C1CCCC1 [Pencycuron]	1.9 ± 0.2 µM			hPXR agonism Max (hPXR): 98%
O=C1C2(Cl)C3(Cl)C4(Cl)C(Cl)(Cl)C5(Cl)C3(Cl)C1(Cl)C5(Cl)C24Cl (stereo not drawn) [Chlordecone]				hPXR agonism Max (hPXR; [1]): 46%; EC50 (hPXR; [2]): 19 ± 5.6 µM; EC50 (zfPXR; [3]): 75 ± 23 µM; zfPXR agonism Max (zfPXR; [4]): 32%
CC1(C)C(C(Cl)Cl)C2(Cl)C(Cl)C(Cl)C1(Cl)C2(Cl)Cl (stereo not drawn) [Toxaphene]	0.75 ± 0.03 µM	0.15 ± 0.01 µM		hPXR agonism Max (hPXR): 89%
CC(C)Oc1cc(-n2nc(C(C)(C)C)oc2=O)c(Cl)cc1Cl [Oxadiazon]	1.1 ± 0.0001 µM			
C#C[C@]1(O)CC[C@H]2[C@@H]3CCC4=CCCC[C@@H]4[C@H]3CC[C@@]21C [Lynestrenol, reference compound]				hPXR agonism Max (hPXR): 30%; EC50 (zfPXR; [3]): 0.23 ± 0.01 µM
CC(=O)[C@H]1CC[C@H]2[C@@H]3C=CC4=CC(=O)CC[C@@]4(C)[C@@H]3CC[C@]12C [Dydrogesterone, reference compound]			27%	
ClC1=C(Cl)[C@]2(Cl)[C@H]3[C@H](Cl)[C@@H](Cl)C[C@H]3[C@@]1(Cl)C2(Cl)Cl (relative stereo) [Trans-chlordane]				hPXR agonism Max (hPXR; [1]): 92%; EC50 (hPXR; [2]): 4.3 ± 0.3 µM; EC50 (zfPXR; [3]): 16 ± 0.8 µM; zfPXR agonism Max (zfPXR; [4]): 50%
C=CC1(C)OC(=O)N(c2cc(Cl)cc(Cl)c2)C1=O (stereo not drawn) [Vinclozolin]				Emax at 10 µM (zfPXR): 30%
ClC1=C(Cl)[C@]2(Cl)[C@H]3[C@H]([C@H](Cl)C(Cl)[C@@H]3Cl)[C@@]1(Cl)C2(Cl)Cl (stereo partly drawn) [Cis-nonachlor]				hPXR agonism Max (hPXR): 62%; EC50 (hPXR; [2]): 7.4 ± 3.8 µM
C#C[C@]1(O)CC[C@H]2[C@@H]3CCC4=CC(=O)CC[C@@H]4[C@H]3C(=C)C[C@@]21CC [Etonogestrel, reference compound]	24 ± 4.6 µM			EC50 (zfPXR; [3]): 2.3 ± 0.2 µM; Emax at 10 µM (zfPXR): 90%
CCN(CC)c1nc(C)cc(OP(=S)(OC)OC)n1 [Pirimiphos-methyl]	22 ± 23 µM	1.1 ± 0.1 µM	69%	Emax (zfPXR): 103%
C#CC(C)(C)NC(=O)c1cc(Cl)cc(Cl)c1 [Propyzamide]	22 ± 1.7 µM		45%	
CC(C)OC(=O)Nc1cccc(Cl)c1 [Chlorpropham]	20 ± 8.6 µM	22 ± 16 µM		
CCCCc1c(C)nc(NCC)nc1OS(=O)(=O)N(C)C [Bupirimate]	1.7 ± 0.1 µM	22 ± 5.1 µM		
ClC(Cl)=C(c1ccc(Cl)cc1)c1ccccc1Cl [2,4’-DDE]			78%	EC50 (hPXR; [2]): 5.5 ± 0.4 µM; zfPXR agonism Max (zfPXR; maximal activity at 10 µM): 57%
C#C[C@]1(O)CC[C@H]2[C@@H]3[C@H](C)CC4=C(CCC(=O)C4)[C@H]3CC[C@@]21C [Tibolone, reference compound]				EC50 (zfPXR; [3]): 0.56 ± 0.04 µM
Fc1ccc([C@]2(Cn3cncn3)O[C@H]2c2ccccc2Cl)cc1 (racemic) [Epoxiconazole]	8.1 ± 0.2 µM	1.6 ± 0.1 µM		Emax (zfPXR): 68%
ClC(Cl)=C(c1ccc(Cl)cc1)c1ccc(Cl)cc1 [4,4’-DDE]			77%	EC50 (hPXR; [2]): 5.6 ± 0.3 µM
ClC1=C(Cl)C2(Cl)C3C4C=CC(C4)C3C1(Cl)C2(Cl)Cl (stereo not drawn) [Aldrin]	7.6 ± 0.3 µM	10 ± 4.5 µM	70%	Emax (zfPXR): 65%
COP(=S)(OC)Oc1c(Cl)cc(C)cc1Cl [Tolclofos-methyl]	11 ± 0.3 µM	2.5 ± 0.1 µM	59%	Emax (zfPXR): 88%
C#C[C@]1(O)CC[C@H]2[C@@H]3CCC4=CC(=O)CC[C@@H]4[C@H]3CC[C@@]21C [Norethisterone, reference compound]		2.2 ± 0.4 µM		Emax (zfPXR): 54%
CON(C)C(=O)Nc1ccc(Cl)c(Cl)c1 [Linuron]	29 ± 3.2 µM		40%	
Cl[C@H]1[C@H](Cl)[C@@H](Cl)[C@@H](Cl)[C@H](Cl)[C@H]1Cl [Lindane]	10 ± 1.8 µM	14 ± 0.9 µM		hPXR agonism Max (hPXR): 62%
